From paper PMC3755991, “Crystal Structure and Substrate Specificity of D-Galactose-6-Phosphate Isomerase Complexed with Substrates” (PLoS ONE, 2013)

Key:
[1] = biological target: D-galactose-6-phosphate isomerase LacAB from Lactobacillus rhamnosus (heterodimer of LacA and LacB) (Lactobacillus rhamnosus); assay: SEC-MALS; purified LacAB on Superdex 200 10/300 GL, 50 mM Tris-HCl pH 7.5, 200 mM NaCl, 1 mL/min
[2] = biological target: T1, LacAB (D-galactose-6-phosphate isomerase) (Lacticaseibacillus rhamnosus, UniProt A0A7S7FMU0+A0ABF7SXF6); assay: X-ray crystal structure, soaking; type: binding; conditions: converted in the crystal, active site
T1 construct: gene LRHM_0645; full-length LacA (142 residues) and LacB (172 residues) co-expressed in E. coli BL21(DE3), pQE-80L, N-terminal His6

[3] = biological target: T1, LacAB (D-galactose-6-phosphate isomerase); assay: conversion to D-psicose in soaked crystal; type: binding; conditions: 40 mM soak for 2 hr; D-psicose seen in the electron density

**Q.** For “D-galactose-6-phosphate isomerase LacAB from Lactobacillus rhamnosus (heterodimer of LacA and LacB) (from UniProt A0ABF7SXF6 1-172) (complex)”, which stoichiometry N [1] is on record?
**A.** 4

**Q.** For `OCC1(O)OC[C@@H](O)[C@@H](O)[C@H]1O` (stereo partly drawn) [D-psicose], which “X-ray crystal structure, soaking” value ([2]; crystal soaked in 40 mM D-allose for 2 hr) is on record?
**A.** 4LFM for its complex with D-psicose

**Q.** With `OC[C@H]1OC(O)[C@H](O)[C@H](O)[C@@H]1O` (stereo partly drawn) [D-allose] as the compound, how does the “conversion to D-psicose in soaked crystal” value [3] read?
**A.** D-allose and D-ribose revealed that the substrates are converted to D-psicose and D-ribulose, respectively

**Q.** With `O=C(CO)[C@H](O)[C@H](O)CO` [D-ribulose] as the compound, how does the “X-ray crystal structure, soaking” value ([2]; crystal soaked in 45 mM D-ribose for 2 hr) read?
**A.** 4LFN for its complex with D-ribulose
